Usually inhibition stands for how much of the control response was suppressed.

The values that follow come from patent US4322496A, “Inhibition of lactate oxidase” (Eastman Kodak Company, priority 1980, dated 1982).

The target in assay [1] is T1, L-Lactate Oxidase (Enterococcus casseliflavus, UniProt C9AC47).
T1 sequence (C9AC47 1-367): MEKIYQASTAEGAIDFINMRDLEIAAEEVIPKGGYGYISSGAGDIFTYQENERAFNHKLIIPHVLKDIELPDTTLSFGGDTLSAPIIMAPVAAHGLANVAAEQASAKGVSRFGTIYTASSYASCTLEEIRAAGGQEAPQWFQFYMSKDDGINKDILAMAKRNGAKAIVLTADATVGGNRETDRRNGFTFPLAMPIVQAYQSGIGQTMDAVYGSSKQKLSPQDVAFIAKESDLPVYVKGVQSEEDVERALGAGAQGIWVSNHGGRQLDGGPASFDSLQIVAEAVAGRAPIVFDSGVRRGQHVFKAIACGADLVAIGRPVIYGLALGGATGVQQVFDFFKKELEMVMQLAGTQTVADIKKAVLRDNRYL
The assay can be described thus: biochemical. As to the method:
(§1) In the examples, oxidative enzymes were prepared from Streptococcus faecium ATCC 12755. L-lactate oxidase was isolated from Streptococcus faecium as a 0-50% ammonium sulfate fraction as described in Esders et al., U.S. Pat. No. 4,166,763 issued Sept. 4, 1979. L-α-glycerophosphate oxidase was purified from Streptococcus faecium as described in Table V, of Research Disclosure Publication No. 16146 published Sept. 10, 1977.
In the examples, enzyme assays for lactate oxidase were carried out as follows: Assay reaction mixtures contained in a total volume of 1.0 ml: 100 μmoles potassium phosphate buffer, pH 7.0, 25 μmoles lactic acid, […] horseradish peroxidase (4.6 purpurogallin units), and 0.25 μmoles orthodianisidine. Compounds to be tested as potential inhibitors for lactate oxidase were added to the assay reaction mixtures as indicated in Example 1. Samples were equilibrated at 30° C. and then reactions were initiated by addition of Streptococcus faecium lactate oxidase. Absorbance at 430 nm was measured in a Beckman 25 spectrophotometer. Initial rates were calculated from the linear portion of the curve.

Assay [2] concerns the target T2, L-α-Glycerophosphate Oxidase (Enterococcus casseliflavus, UniProt O86963).
T2 construct: L-α-glycerophosphate oxidase was purified from Streptococcus faecium; made in house; host or cells: Streptococcus faecium ATCC 12755 (native organism, not recombinant)
T2 sequence (O86963 1-609): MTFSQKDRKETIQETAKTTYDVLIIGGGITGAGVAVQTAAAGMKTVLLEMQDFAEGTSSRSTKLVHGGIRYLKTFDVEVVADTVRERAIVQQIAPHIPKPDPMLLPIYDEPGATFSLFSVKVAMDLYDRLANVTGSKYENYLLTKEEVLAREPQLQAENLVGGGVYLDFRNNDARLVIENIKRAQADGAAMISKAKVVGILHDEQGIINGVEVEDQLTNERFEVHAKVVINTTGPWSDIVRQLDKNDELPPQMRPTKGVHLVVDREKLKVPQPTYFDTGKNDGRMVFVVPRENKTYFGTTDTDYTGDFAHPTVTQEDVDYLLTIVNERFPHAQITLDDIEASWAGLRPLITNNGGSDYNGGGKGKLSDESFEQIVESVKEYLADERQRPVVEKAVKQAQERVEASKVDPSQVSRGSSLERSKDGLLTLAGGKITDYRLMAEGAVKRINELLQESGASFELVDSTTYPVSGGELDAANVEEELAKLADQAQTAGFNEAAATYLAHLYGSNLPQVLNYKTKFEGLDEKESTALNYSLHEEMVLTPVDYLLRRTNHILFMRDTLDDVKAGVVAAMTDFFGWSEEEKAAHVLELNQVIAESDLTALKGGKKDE
The assay can be described thus: L-α-glycerophosphate oxidase enzyme assay (absorbance at 430 nm). Format: biochemical. As to the method: as §1, with “1977. Extensively purified L-α-glycerophosphate oxidase (material carried through the whole purification sequence) contained L-α-glycerophosphate:lactate oxidase activity ratios of (1700-3000:1), whereas the partially purified L-α-glycerophosphate oxidase (material isolated as the 50-80% ammonium sulfate fraction) contained L-α-glycerophosphate:lactate oxidase activity ratios of 30-100:1.” for “1977.”
In the examples, enzyme assays for L-α-glycerophosphate oxidase were carried out as follows: Assay reaction mixtures contained in a total volume of 1.0 ml: 100 μmoles potassium phosphate buffer, pH 7.0, 66 μg orthodianisidine, 25 μg horseradish peroxidase (4.6 purpuragallin units) and 200 μmoles DL-α-glycerophosphate (at pH 7.0). Compounds to be tested as potential inhibitors were added to the reaction mixtures as indicated in Example 1. Samples were equilibrated at 37° C. and the reactions were initiated by the addition of an aliquot of enzyme. Absorbance at 430 nm was measured in a Beckman 25 spectrophotometer. Initial rates were calculated from the linear portion of the curve.

The test system of assay [3] is components of the triglyceride detection system. Kind of assay: Response of dry chemistry triglyceride test elements to test fluids. As to conditions: 81 or 405 mg/m^2 glycolate in element. As to the method: In the examples, non-fibrous, multilayer, "dry chemistry" analytical elements for determination of serum triglycerides were formulated having the following structure and composition: […]
The enzymatic reagent layer composition of the above-noted "dry chemistry" analytical element contained deionized gelatin (5.4 g/m^2); gel hardener (32.4 mg/m^2); poly(methyl acrylate-co-2-acrylamido-2-methylpropanesulfonic acid-co-2-acetoacetoxyethyl methacrylate) having a monomer weight ratio of (88.8:4.7:6.5) as peroxidase stabilizer (5.4 g/m^2); 0.05 M potassium phosphate buffer, pH 7.0; Triton X-100 surfactant (389 mg/m^2); 2-(3,5-dimethoxy-4-hydroxyphenyl)4,5-bis(4-dimethylaminophenyl)imidazole as a leuco dye (405 mg/m^2 dispersed in 2,4-di-n-amylphenol (4.05 g/m^2); antioxidant (324 mg/m^2); MgCl (103 mg/m^2); adenosinetriphosphate (1.35 g/m^2); peroxidase (7020 U/m^2); glycerol kinase (324 U/m^2); and either purified or partially purified L-α-glycerophosphate oxidase (2840 U/m^2). […]
Dry chemistry analytical elements (as described above) containing purified L-α-glycerophosphate oxidase and partially purified enzyme plus two different levels of glycolate were compared for response to serum triglycerides and glycerol. […] After a sevenminute incubation at 37° C., the reflection density, DR, at 540 nm was measured through the element support. […]

With `O=C(O)CO` [Glycolic Acid], the “inhibition of lactate oxidase activity (in words)” value in assay [1] is given as “greatly inhibit”. Moreover, the inhibition at 10000 µM in assay [1] (acid 10mM, read-out: LO % Inhibition) was 90%. Also, the inhibition at 5000 µM in assay [1] (compound at 5 mM, 30° C., pH 7.0, rate without compound = 100%, read-out: L-Lactate Oxidase Percent Inhibition) is 90%; in assay [2] (compound at 5 mM, 37° C., pH 7.0, read-out: L-α-Glycerophosphate Oxidase Percent Inhibition), 0%. Moreover, the “inhibition of L-α-GPO (in words)” value in assay [2] was “do not inhibit”. In addition, in assay [3], the “inhibition of the components of the triglyceride detection system (in words)” value is listed as “did not inhibit any of the components of the triglyceride detection system”.
